Laboratory results: ChEMBL document CHEMBL3044816, “Mode of Action of Herbicidal N-Benzyl-4-chloro-N-isobutyl-2-pentenamides” (J Pestic Sci, 2002)
The source made the active and inactive calls. The rule behind the calls is not given here.

Assays:
Scenedesmus acutus [1] = experiment: Phytotoxic activity against Scenedesmus acutus assessed as zeta-carotene accumulation; assay type: functional, organism-based
Echinochloa crus-galli = experiment: Herbicidal activity against Echinochloa crus-galli (barnyard grass) assessed as damage of seedlings; assay type: functional
Scenedesmus acutus [2] = experiment: Phytotoxic activity against Scenedesmus acutus assessed as phytoene accumulation; assay type: functional, organism-based

Compound	ED90 (Echinochloa crus-galli)	also measured
COc1ccc(C(=O)c2cccc(C)c2)cc1C		Activity (Scenedesmus acutus [1]): Active
CC(Cl)/C=C/C(=O)N(Cc1ccc(C(F)(F)F)cc1)CC(C)C (stereo unspecified)	31 gAi/ha	
CC(Cl)/C=C/C(=O)N(Cc1ccc(S(C)(=O)=O)cc1)CC(C)C (stereo unspecified)	>1000 gAi/ha	
CC(Cl)/C=C/C(=O)N(Cc1ccc(Cl)cc1)CC(C)C (stereo unspecified)	16 gAi/ha	
CNc1cnn(-c2cccc(C(F)(F)F)c2)c(=O)c1Cl		Activity (Scenedesmus acutus [2]): Active
CC(Cl)/C=C/C(=O)N(Cc1ccc(C#N)cc1)CC(C)C (stereo unspecified)	16 gAi/ha	
